Legend:
[1] = reference antidepressants, A. K. Dixon 1982; cited from earlier work
[2] = reference antischizophrenics; Sayers and Kleinlogel 1974; cited from earlier work
[3] = characteristic for antidepressants; H. Kleinlogel, page 83; cited from earlier work
[4] = aggression test: social interactions in male mice in aggression-evoking social encounters; assay type: in vivo, mouse; details: 0.3 mg/kg p.o. (acute administration)
Protocol: The compounds of formula I promote social interactions after acute and chronic administration of 0.3 to 10 mg/kg p.o. in male mice in aggression-evoking social encounters [A. K. Dixon, Triangle 21 (1982) 95-105; M. Krsiak, Brit. J. Pharmacol. 55 (1975) 141-150]. […] M. Y. Spiegelstein, A. Levy, Elsevier, Amsterdam (1982) 39-55].

[5] = 8h-sleep-EEG: sleep phases in the sleep/wake cycle in the rat; assay type: in vivo; details: 10 mg/kg p.o.; rat 8h-sleep-EEG
Protocol: Further, the compounds of formula I modify the sleep phases in the sleep/wake cycle in the rat after administration of 3 to 30 mg/kg p.o. [H. Kleinlogel, EEG in Drug Research, Ed. H. Hermann, Gustav Fischer Verlag, Stuttgart, New York, 75-88 (1982)]. In the 8h-EEG, the slow wave phase (SWS) is increased, whereas the spindle phase and the paradoxical sleep phase (PS) are reduced. In Hjorth, parameters are the mean EEG amplitude (CA) and the complexity (CCF) increased.

[6] = atypical dozing in the rat-8h-sleep-EEG; assay type: in vivo; details: 10 mg/kg p.o.
[7] = biological target: T1, 5HT-1A-binding sites in the pig cortex (Sus scrofa, UniProt A0A4X1UTF5); test: 5HT-1A-binding affinity test, binding of 3H-8-hydroxy-2-(di-n-propylamino)-tetraline (3H-PAT)
T1 construct: from tissue; host or cells: pig cortex
T1 sequence (A0A4X1UTF5 1-422): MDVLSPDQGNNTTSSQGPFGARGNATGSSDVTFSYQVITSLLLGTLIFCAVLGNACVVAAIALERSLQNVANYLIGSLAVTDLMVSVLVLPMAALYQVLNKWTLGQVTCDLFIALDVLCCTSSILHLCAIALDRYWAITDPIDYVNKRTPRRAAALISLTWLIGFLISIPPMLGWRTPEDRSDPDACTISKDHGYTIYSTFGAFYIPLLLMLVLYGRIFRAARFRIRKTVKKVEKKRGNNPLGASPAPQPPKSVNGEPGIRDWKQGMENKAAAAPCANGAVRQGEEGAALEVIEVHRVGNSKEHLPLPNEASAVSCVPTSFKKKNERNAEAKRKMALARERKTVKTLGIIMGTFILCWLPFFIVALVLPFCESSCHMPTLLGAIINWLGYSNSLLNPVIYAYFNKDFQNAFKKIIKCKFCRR

CN(C)CCC=C1c2ccccc2CCc2ccccc21 [amitriptyline]
promotion of social behaviour [1]: promote social behaviour

CN1CCN(C2=Nc3cc(Cl)ccc3Nc3ccccc32)CC1 [clozapine]
atypical dozing characteristic for antischizophrenics [2]: atypical dozing characteristic

CN1Cc2c(N)cccc2C(c2ccccc2)C1 (stereo not drawn) [nomifensine]
decrease of paradoxical sleep phase [3]: decrease of paradoxical sleep phase

CNCCCN1c2ccccc2CCc2ccccc21 [desipramine]
decrease of paradoxical sleep phase [3]: decrease of paradoxical sleep phase

COc1ccc(Cl)cc1C(=O)NCCN1CCN(c2nc(C(C)(C)C)cs2)CC1 [Example 8, 5-Chloro-2-methoxy-N-(2-(4-(4-(1,1-dimethylethyl)-2-thiazolyl)-1-piperazinyl)ethyl)-benzamide]
promotion of social interactions [4]: promotes social interactions | complexity (CCF) [5]: increased | mean EEG amplitude (CA) [5]: increased | paradoxial sleep phase (PS) [5]: reduces | slow wave phase (SWS) [5]: increases | spindle phase [5]: reduces | atypical dozing [6]: shows atypical dozing | IC50 [7]: 600 nM

O=C1CC2(CCCC2)CC(=O)N1CCCCN1CCN(c2ncccn2)CC1 [buspirone]
IC50 [7]: 10 to 400 nM

O=C(CCCN1CCC(O)(c2ccc(Cl)cc2)CC1)c1ccc(F)cc1 [haloperidol]
atypical dozing characteristic for antischizophrenics [2]: atypical dozing characteristic

CN(C)CCN1C(=O)c2ccccc2N(C)c2ccccc21 [dibenzepine]
decrease of paradoxical sleep phase [3]: decrease of paradoxical sleep phase

CN1CCN2c3ccccc3Cc3ccccc3C2C1 (stereo not drawn) [mianserine]
decrease of paradoxical sleep phase [3]: decrease of paradoxical sleep phase

CN(C)CCCN1c2ccccc2CCc2ccccc21 [imipramine]
promotion of social behaviour [1]: promote social behaviour | decrease of paradoxical sleep phase [3]: decrease of paradoxical sleep phase
